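Five compound concentrations were applied to cells in 96-well plates for 48 hours; endpoints were derived by simple linear interpolation of the resulting dose-response curve. TGI: concentration producing complete growth inhibition.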
Columns and labels:
Test in all cases: inhibition of tumour cell growth, NCI panel, 48 h
ACHN renal = test system: ACHN renal
CCRF-CEM leukemia = test system: CCRF-CEM leukemia
DU-145 prostate = test system: DU-145 prostate
EKVX NSCLC = test system: EKVX NSCLC
HOP-62 NSCLC = test system: HOP-62 NSCLC
HOP-92 NSCLC = test system: HOP-92 NSCLC
M14 melanoma = test system: M14 melanoma
OVCAR-8 ovarian = test system: OVCAR-8 ovarian
PC-3 prostate = test system: PC-3 prostate
SF-268 CNS = test system: SF-268 CNS

Measured: TGI

C(#Cc1ccccc1)SC1=C(c2ccccc2)S/C(=C(\SC#Cc2ccccc2)c2ccccc2)S1
> 100 µM: ACHN renal | CCRF-CEM leukemia | DU-145 prostate | EKVX NSCLC | HOP-62 NSCLC | HOP-92 NSCLC | M14 melanoma | OVCAR-8 ovarian | PC-3 prostate | SF-268 CNS

O=[N+]([O-])/C(C(Cl)=C(Cl)Cl)=C(/Nc1ccccc1)Sc1ccccc1
33.1 µM: ACHN renal
41.4 µM: DU-145 prostate
38 µM: EKVX NSCLC
33.6 µM: OVCAR-8 ovarian
68.3 µM: HOP-92 NSCLC
34.9 µM: PC-3 prostate
36.5 µM: M14 melanoma
36.6 µM: CCRF-CEM leukemia
62 µM: HOP-62 NSCLC
28.2 µM: SF-268 CNS

O=C(Nc1ccc2ccccc2c1)c1cc2cc(CCl)ccc2oc1=O
73.5 µM: SF-268 CNS
> 100 µM: ACHN renal | CCRF-CEM leukemia | DU-145 prostate | EKVX NSCLC | HOP-62 NSCLC | HOP-92 NSCLC | M14 melanoma | OVCAR-8 ovarian | PC-3 prostate

COc1ccc(CNc2nc3ccccc3nc2C(=O)O)cc1
> 100 µM: CCRF-CEM leukemia | DU-145 prostate | EKVX NSCLC | HOP-62 NSCLC | HOP-92 NSCLC | M14 melanoma | OVCAR-8 ovarian | PC-3 prostate | SF-268 CNS

CSCCCNC(=O)[C@H](CSC)NC(=O)c1csc(CCNC(=O)[C@@H](NSc2ccccc2[N+](=O)[O-])C(C)O)n1 (some centres not stated)
> 100 µM: ACHN renal | CCRF-CEM leukemia | DU-145 prostate | EKVX NSCLC | HOP-62 NSCLC | HOP-92 NSCLC | M14 melanoma | OVCAR-8 ovarian | PC-3 prostate | SF-268 CNS

CCn1c2ccccc2c2cc(Nc3cc(C)[nH]c(=O)n3)ccc21
> 100 µM: ACHN renal | DU-145 prostate | EKVX NSCLC | HOP-62 NSCLC | HOP-92 NSCLC | M14 melanoma | OVCAR-8 ovarian | PC-3 prostate | SF-268 CNS

COC1CC(OC2C(C)OC(OC3C(C)OC(OC4C(C)OC(O[C@H]5CC[C@@]6(C)C(=CC[C@]7(O)[C@@H]6C[C@@H](O)[C@@]6(C)[C@]7(O)CC[C@@]6(O)C(C)=O)C5)CC4OC)CC3OC)CC2OC)OC(C)C1O (some centres not stated)
> 12.5 µM: ACHN renal | CCRF-CEM leukemia | DU-145 prostate | EKVX NSCLC | HOP-62 NSCLC | HOP-92 NSCLC | M14 melanoma | OVCAR-8 ovarian | PC-3 prostate | SF-268 CNS

Cc1ccc(NC(=O)CC(=O)n2nc(C)c(N=Nc3cccc(C)c3)c2C)cc1
> 100 µM: ACHN renal | CCRF-CEM leukemia | DU-145 prostate | EKVX NSCLC | HOP-62 NSCLC | HOP-92 NSCLC | M14 melanoma | OVCAR-8 ovarian | PC-3 prostate | SF-268 CNS

C[C@H](CCC(=O)NCC(=O)O)[C@H]1CC[C@H]2[C@@H]3[C@H](O)C[C@@H]4C[C@H](O)CC[C@]4(C)[C@H]3CC[C@]12C
> 100 µM: ACHN renal | CCRF-CEM leukemia | DU-145 prostate | EKVX NSCLC | HOP-62 NSCLC | HOP-92 NSCLC | M14 melanoma | OVCAR-8 ovarian | PC-3 prostate | SF-268 CNS

CCCCC[C@H]1CCCCCCCCCC(=O)OC2C(O[C@@H]3OC(C)[C@H](OC(=O)[C@@H](C)CC)C(O[C@@H]4OC(C)[C@H](O)C(O)[C@@H]4O)[C@@H]3OC(=O)[C@H](C)CC)[C@H](OC3C(O)[C@@H](O)C(C)O[C@H]3O1)OC(CO)[C@H]2O (some centres not stated)
37.1 µM: HOP-92 NSCLC
32.3 µM: M14 melanoma
33.4 µM: SF-268 CNS
30 µM: DU-145 prostate
36.7 µM: EKVX NSCLC
32.5 µM: CCRF-CEM leukemia
32.8 µM: HOP-62 NSCLC
29.8 µM: PC-3 prostate
35.5 µM: OVCAR-8 ovarian

Source: PubChem BioAssay (NCI)
